Experimental data reported in patent publication US7736646B2, “Methods for modulating angiogenesis with apelin compositions” (Arizona Board of Regents on behalf of the University of …, priority 2003, dated 2010).

Assays:
[1] = test system: primary rat cardiomyocyte cells; assay: Cobalt chloride hypoxia-mimic treatment, transcript levels by PCR; type: cell-based; details: 150 μM, 4 hours, versus untreated cells
Method: Because HIF-1α consensus sites are present in the apelin regulatory region, experiments were conducted to determine whether apelin expression is hypoxia responsive and regulated by HIF-1α. Upregulation of apelin expression under hypoxic conditions would be consistent with a role for apelin in promotion of tumor angiogenesis. Preliminary experiments were carried out using primary rat cardiomyocyte cells in culture and treatment with cobalt chloride. This procedure is accepted as an equivalent to culturing cells under hypoxic conditions because HIF-1α is a metal responsive transcription protein (Ladoux and Frelin, 1994; Piret et al., 2002; Maxwell and Salnikow, 2004). Fetal rat cardiac myocytes were plated and cultured in DMEM (Invitrogen, Carlsbad, Calif.) supplemented with 10% fetal calf serum and penicillin/streptomyocin at 37° C. After four days of culture, medium was removed, and cells were treated with fresh media containing 150 μM Cobalt Chloride (Piret et al., 2002). […] After 4 hours of culture, cells were harvested, and total RNA was extracted using the Trizol procedure according to the manufacturers recommendations (Invitrogen, Carlsbad, Calif.).
Following PCR, amplification products were fractionated on an agarose gel and visualized using ethidium bromide staining under ultraviolet light (FIG. 12).

BAE/APJ#2 cells [2] = assay: Endothelial cell proliferation assay (BrdU incorporation); type: cell-based, bovine
Method: SU1498 was included in proliferation cultures at a concentration of 10 ng/ml and results were assayed using BrdU incorporation. After growth factor incubation, BrdU was added to each well at a final concentration of 10 μM for 2 hours, cells were washed, and fixed for BrdU immunocytochemistry.
Cells were fixed in 100% ice cold methanol at 4° C. for 2 hours to overnight. Prior to staining, cells were air dried and rehydrated for 3 minutes with PBS buffer. DNA was denatured at 37° C. with 2 M HCl, and neutralized with 2 washes for 5 minutes in 0.1 M borate buffer (pH 8.5). […] FITC-labeled anti-BrdU antibody (5 μg/ml) in block was added for 1 hour at room temperature. Cells were counterstained with propidium iodide following several washes in PBS buffer. For each experiment, 4 random fields were photographed for determination of percentage BrdU labeling.

BAE/APJ#2 cells [3] = details: 10 ng/ml in bottom chamber, 16 hours
Method: Bovine aortic endothelial cells (BAE) were cultured in DMEM supplemented with 10% fetal bovine serum (FBS) and penicillin/streptomycin. For generation of stable cell lines expressing APJ, the mouse APJ coding region was cloned into the pcDNA 3.1 vector downstream of the CMV promoter, in frame with a myc epitope at the C-terminal end of the protein, and upstream of the neomycin gene. […] Colonies were isolated and screened using RT-PCR for expression of mouse APJ and also by immunocytochemistry for expression of the myc epitope.
Cell migration assays were performed using Transwell cell culture migration chambers (Becton Dickinson) with 8 micron pore size. BAE/APJ#2 cells were plated in serum free conditions in 100 μl at a concentration of 1×10^5 ml in the upper chamber of the migration chamber. Following cell attachment to the membrane, 10 ng/ml of growth factor was added to the bottom chamber, in a total volume of 0.5 ml. Cells were stimulated with growth factor in DMEM for 16 hours, or DMEM alone, at which time the cells remaining in the upper chamber were removed using a cotton tip applicator. Following a brief wash with PBS the remaining cells were fixed in 3.7% formaldehyde at 4° C. for 1 hour. Cells attached to the membrane in the lower chamber were stained with DAPI, and 3 random fields were counted for each experimental condition.

[4] = test system: chicken chorioallantoic membrane (CAM); details: 50 ng on filter disc, three days, compared to control PBS
Method: Chicken eggs were incubated at 37° C. in a humidified chamber. On day 10 of development, a small window was made in the outer shell of the egg, and the CAM was released from its attachment to the inner shell membrane. A larger window was then made in the egg to allow for addition of the filter paper containing growth factor. Filter discs (3MM Whatman) of 7-8 mm diameter were pretreated with 10 μl of 0.1% cortisone acetate (Sigma) solution to avoid inflammation of the CAM. The filter discs were air dried prior to application of growth factors. […] After air-drying, the filter discs were placed on the CAM, and eggs were returned to the incubator for three days. Filter discs and the attached CAM were then excised, washed with PBS, trimmed to the size of the disc, and photographed for quantitative analysis (FIGS. 7A and 7B). The number of vessel branch points was determined using a blind protocol. The results are shown as the mean of three independent experiments +/−s.e.m. (FIG. 7C).

[Cl][Co][Cl] [Cobalt Chloride]
apelin expression (transcript level, PCR) [1]: significantly increased

CC(C)c1cc(/C=C(\C#N)C(=O)NCCCc2ccccc2)cc(C(C)C)c1O [SU1498, reference compound]
effect on VEGF-mediated proliferation (BAE/APJ#2 cells [2]; SU1498 10 ng/ml, VEGF 10 ng/ml): partially inhibits
effect on apelin-mediated proliferation (BAE/APJ#2 cells [2]; SU1498 10 ng/ml, apelin 10 ng/ml): no significant effect

VEGF [reference compound]
endothelial cell migration (cells per field) (BAE/APJ#2 cells [3]): increase in migration

apelin-13
endothelial cell proliferation (percentage BrdU labeling) (BAE/APJ#2 cells [2]; 10 ng/ml, 24 hours, serum starved cells): promotes endothelial cell proliferation to a similar extent as VEGF
endothelial cell proliferation in the presence of the VEGF inhibitor SU1498 (BAE/APJ#2 cells [2]; apelin 10 ng/ml with SU1498 10 ng/ml): still able to promote proliferation
blood vessel formation in the CAM [4]: increased
leakage of blood vessels in the CAM [4]: increased
endothelial cell migration (cells per field) (BAE/APJ#2 cells [3]): promotes endothelial cell migration
